Assay results as given in patent publication US8148112B2, “Sugar chain containing 4-position halogenated galactose and application thereof” (National University Corporation Hokkaido University, priority 2005, dated 2012).

T1: rat-derived α2,6-N-sialyltransferase (Rattus norvegicus, UniProt P13721)
T1 construct: purchased Calbiochem
T1 sequence (P13721 1-403): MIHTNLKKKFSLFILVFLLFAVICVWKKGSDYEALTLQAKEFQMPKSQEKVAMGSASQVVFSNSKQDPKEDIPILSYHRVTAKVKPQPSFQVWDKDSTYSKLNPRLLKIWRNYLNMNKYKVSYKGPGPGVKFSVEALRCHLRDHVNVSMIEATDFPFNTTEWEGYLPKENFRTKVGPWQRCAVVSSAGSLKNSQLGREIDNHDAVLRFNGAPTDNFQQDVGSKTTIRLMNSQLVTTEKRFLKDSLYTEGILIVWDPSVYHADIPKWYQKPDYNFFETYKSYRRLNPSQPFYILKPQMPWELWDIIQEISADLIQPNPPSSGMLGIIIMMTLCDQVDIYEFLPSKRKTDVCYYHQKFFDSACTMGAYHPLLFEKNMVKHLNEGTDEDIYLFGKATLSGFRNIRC

T2: rat-derived α2,3-N-sialyltransferase (Rattus norvegicus, UniProt Q02734)
T2 construct: purchased Calbiochem
T2 sequence (Q02734 1-374): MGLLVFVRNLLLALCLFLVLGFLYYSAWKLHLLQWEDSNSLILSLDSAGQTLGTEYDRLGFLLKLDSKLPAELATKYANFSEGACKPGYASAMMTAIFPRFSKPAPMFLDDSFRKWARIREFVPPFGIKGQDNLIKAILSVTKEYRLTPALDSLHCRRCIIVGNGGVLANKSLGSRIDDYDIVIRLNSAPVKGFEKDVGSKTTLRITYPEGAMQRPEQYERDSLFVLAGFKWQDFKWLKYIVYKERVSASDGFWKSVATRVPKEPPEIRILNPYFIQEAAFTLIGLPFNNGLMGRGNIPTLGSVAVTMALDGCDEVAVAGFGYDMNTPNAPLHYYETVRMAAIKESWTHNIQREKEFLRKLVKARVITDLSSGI


Columns and labels:
[1] = target: T1, rat-derived α2,6-N-sialyltransferase; experiment: Kinetic analysis of α2,6-sialyltransfer reaction to 4MU-4F-LacNAc; assay type: biochemical; conditions: for Activity: α2,6-sialyltransferase
Method: (§1) The mixture was allowed to react at 25° C.
Precisely 120 minutes after initiation of the reaction, the reaction was terminated through addition of 1M NaOH (⅕ times in volume). The reaction mixture was neutralized and diluted with an HPLC eluent, and the diluted product was analyzed through HPLC. […] Note that “1U” was defined as an enzyme amount which realizes formation of sialylated sugar in an amount of 1 μmol/min under the above conditions.
The mixture was allowed to react at 25° C. for 10 minutes.
The enzymatic activity values at respective concentrations are compared.

[2] = target: T2, rat-derived α2,3-N-sialyltransferase; experiment: Kinetic analysis of α2,3-sialyltransfer reaction to 4MU-4F-LacNAc; assay type: biochemical; conditions: for Activity: α2,3-sialyltransferase
Method: as §1
Precisely 60 minutes after initiation of the reaction, the reaction was terminated through addition of 80% acetonitrile (4 times in volume) and vigorous stirring. The reaction mixture was diluted, and the diluted product was analyzed through HPLC. […] Note that “1U” was defined as an enzyme amount which realizes sialylated sugar to form in an amount of 1 μmol/min under the above conditions.
The mixture was allowed to react at 25° C. for eight minutes.

[3] = target: T2, rat-derived α2,3-N-sialyltransferase; experiment: Enzymatic α2,3-sialyltransfer reaction to pyridylaminated (PA) 4F-galactosylchitobiose, HPLC percent conversion; assay type: biochemical; conditions: 10 μM acceptor, 100 μM CMP-NeuAc, 100 mU/mL enzyme, 25° C.; percent conversion compared with PA galactosylchitobiose
Method: (§2) To a 10 mM HEPES-NaOH buffer (pH 7.5) containing 10 mM manganese chloride, 100 mM sodium chloride, 100 μM CMP-NeuAc, 0.02% (w/v) BSA, and 10 μM pyridylaminated (PA) 4F-galactosylated chitobiose, rat-derived α2,3-N-sialyltransferase (product of Calbiochem) (100 mU/mL-reaction mixture) was added, and the mixture was allowed to react at 25° C. In a similar manner, a similar mixture employing pyridylaminated (PA) galactosylated chitobiose as an acceptor was allowed to react as a control reaction.
An aliquot was sampled from the reaction mixture at hour 2.5 and hour 24 after initiation of the reaction. Finally, the reaction was terminated through addition of 10 mM sodium phosphate (pH 4.3) (9 times in volume) and vigorous stirring. The product was analyzed through HPLC employing a C30-UG-5 column. […] A fraction corresponding to each peak was collected and dried under reduced pressure. […] Mass analysis detected, in the reaction employing pyridylaminated (PA) 4F-galactosylchitobiose, an [M+H]^+ peak (m/z 959.45), thereby confirming formation of compound 17. Also, in the reaction employing pyridylaminated (PA) galactosyl chitobiose, an [M+H]^+ peak (m/z 957.31) was detected, thereby confirming formation of compound 18. […]

[4] = target: T1, rat-derived α2,6-N-sialyltransferase; experiment: Enzymatic α2,6-sialyltransfer reaction to pyridylaminated (PA) 4F-galactosylchitobiose, HPLC percent conversion; assay type: biochemical; conditions: 10 μM acceptor, 100 μM CMP-NeuAc, 40 mU/mL enzyme, 25° C.; percent conversion compared with PA galactosylchitobiose
Method: as §2, with “α2,6-N-sialyltransferase” for “α2,3-N-sialyltransferase”, “(40” for “(100”
An aliquot was sampled from the reaction mixture at hour 1, hour 2.5, hour 8, and hour 24 after initiation of the reaction. Finally, the reaction was terminated through addition of a mixture of 0.5M triethylamine-acetic acid (pH 7.3) and acetonitrile (25:75) (19 times in volume) and vigorous stirring. The product was analyzed through HPLC. […] Mass analysis detected an [M+H]^+ peak (m/z 659.74) attributed to compound 19, thereby confirming formation of compound 19. Also, in the control reaction employing UDP-Gal, an [M+H]^+ peak (m/z 657.74) attributed to compound 20 was detected through MALDI-TOF-MS, confirming formation of compound 20. […]

[5] = Galactokinase (GalK) activity of the enzyme liquid; assay type: biochemical, E. coli; conditions: galactokinase activity of purified enzyme liquid, method by Takeda et al.
Method: E. coli (JM109 strain) (from Takara Bio) was transformed with a pTrc-galK plasmid (JP-A-2002-335988) in which a gene encoding E. coli-derived GalK has been inserted. The transformed cells were inoculated to a 2×YT medium (100 mL) containing 100 μg/mL ampicillin, followed by shake culturing at 37° C. When the number of the cells reached 1×10^8 cells/mL, isopropyl-p-thiogalactoside (IPTG) was added to the culture so as to adjust the final concentration to 0.2 mM, and shake culture was continued for further eight hours. After completion of culturing, cells were collected through centrifugation (9,000×g, 20 min) and suspended in a buffer (20 mM Tris-HCl (pH 7.5) and 1 mM magnesium chloride) (10 mL). The cells were disrupted through ultrasonication, and the product was centrifuged (20,000×g, 10 min), to thereby remove cell residues.
The thus-produced fraction was employed as an enzyme liquid in the following synthesis reactions. The galactokinase (GalK) activity of the enzyme liquid was determined (Table 1). In the present invention, GalK activity was determined through a method by Takeda et al. (JP-A-2002-335988).

[6] = substrate: CC(=O)NC1C(O)[C@H](O[C@@H]2OC(CO)[C@H](F)[C@H](O)C2O)[C@H](CO)O[C@H]1Oc1ccc2c(C)cc(=O)oc2c1; experiment: purified protein, by the assay type; conditions: other: 1/[S]-1/v plotting, 200 μM CMP-NeuAc, 25° C., pH 7.5
[7] = substrate: CC(=O)NC1C(O)[C@H](O[C@@H]2OC(CO)[C@H](O)[C@H](O)C2O)[C@H](CO)O[C@H]1Oc1ccc2c(C)cc(=O)oc2c1; experiment: purified protein, by the assay type; conditions: 25° C., pH 7.5
[8] = other: 1/[S]-1/v plotting, 200 μM CMP-NeuAc
[9] = other: rat-derived α2,6-sialyltransferase 40 mU/mL, 10 minutes, 1/[S]-1/v plotting

Molecule	Activity ([1]; acceptor concentration 20 μM) [mU/mL]	Activity ([1]; acceptor concentration 40 μM) [mU/mL]	Activity ([1]; acceptor concentration 80 μM) [mU/mL]	Activity ([1]; acceptor concentration 120 μM) [mU/mL]	Activity ([1]; acceptor concentration 150 μM) [mU/mL]	Activity ([2]; acceptor concentration 20 μM) [mU/mL]	Activity ([2]; acceptor concentration 40 μM) [mU/mL]	Activity ([2]; acceptor concentration 80 μM) [mU/mL]	Activity ([2]; acceptor concentration 150 μM) [mU/mL]	also measured
CC(=O)NC1C(O)[C@H](O[C@@H]2OC(CO)[C@H](F)[C@H](O)C2O)[C@H](CO)O[C@H]1Oc1ccc2c(C)cc(=O)oc2c1 (some centres unmarked) [4MU-4F-LacNAc, 4-methylumbelliferyl 4F—N-acetyllactosamine]	0.07743	0.1561	0.3223	0.4596	0.6348	0.9972	1.756	3.214	4.541	sialyltransferase activity of α2,6-sialyltransferase with respect to acceptor ([1]; compared with 4MU-LacNAc at respective concentrations): clearly decreased; catalytic efficiency of α2,3-sialyltransferase relative to that with respect to 4MU-LacNAc ([2]; compared with 4MU-LacNAc): ≤ 6%
CC(=O)NC1C(O)[C@H](O[C@@H]2OC(CO)[C@H](O)[C@H](O)C2O)[C@H](CO)O[C@H]1Oc1ccc2c(C)cc(=O)oc2c1 (some centres unmarked) [4MU-LacNAc, reference compound]	0.8800	1.667	2.504	3.734	4.828	16.20	28.50	45.36	66.23	–
CC(=O)NC(CNc1ccccn1)[C@H](O)C(O[C@@H]1OC(CO)[C@@H](O[C@@H]2OC(CO)[C@H](F)[C@H](O)C2O)[C@H](O)C1NC(C)=O)C(O)CO (some centres unmarked) [pyridylaminated (PA) 4F-galactosylchitobiose]	–	–	–	–	–	–	–	–	–	reactivity of α2,3-sialyltransferase [3]: considerably decrease; reactivity of α2,6-sialyltransferase [4]: considerably decrease
GalK: E. coli-derived galactokinase, purified enzyme liquid (protein, UniProt P0A6T3 2-382, looked up) Galactokinase: SLKEKTQSLFANAFGYPATHTIQAPGRVNLIGEHTDYNDGFVLPCAIDYQTVISCAPRDDRKVRVMAADYENQLDEFSLDAPIVAHENYQWANYVRGVVKHLQLRNNSFGGVDMVISGNVPQGAGLSSSASLEVAVGTVLQQLYHLPLDGAQIALNGQEAENQFVGCNCGIMDQLISALGKKDHALLIDCRSLGTKAVSMPKGVAVVIINSNFKRTLVGSEYNTRREQCETGARFFQQPALRDVTIEEFNAVAHELDPIVAKRVRHILTENARTVEAASALEQGDLKRMGELMAESHASMRDDFEITVPQIDTLVEIVKAVIGDKGGVRMTGGGFGGCIVALIPEELVPAVQQAVAEQYEAKTGIKETFYVCKPSQGAGQC	–	–	–	–	–	–	–	–	–	Enzymatic activity [5]: 23.1 units/mg protein
rat-derived α2,3-N-sialyltransferase (Rattus norvegicus) (protein) MGLLVFVRNLLLALCLFLVLGFLYYSAWKLHLLQWEDSNSLILSLDSAGQTLGTEYDRLGFLLKLDSKLPAELATKYANFSEGACKPGYASAMMTAIFPRFSKPAPMFLDDSFRKWARIREFVPPFGIKGQDNLIKAILSVTKEYRLTPALDSLHCRRCIIVGNGGVLANKSLGSRIDDYDIVIRLNSAPVKGFEKDVGSKTTLRITYPEGAMQRPEQYERDSLFVLAGFKWQDFKWLKYIVYKERVSASDGFWKSVATRVPKEPPEIRILNPYFIQEAAFTLIGLPFNNGLMGRGNIPTLGSVAVTMALDGCDEVAVAGFGYDMNTPNAPLHYYETVRMAAIKESWTHNIQREKEFLRKLVKARVITDLSSGI	–	–	–	–	–	–	–	–	–	Km [6]: 188 µM; Vmax [6]: 12.60 nmol/min/mg; Km [7, 8]: 129 µM; Vmax [7, 8]: 146.9 nmol/min/mg
rat-derived α2,6-N-sialyltransferase (Rattus norvegicus) (protein) MIHTNLKKKFSLFILVFLLFAVICVWKKGSDYEALTLQAKEFQMPKSQEKVAMGSASQVVFSNSKQDPKEDIPILSYHRVTAKVKPQPSFQVWDKDSTYSKLNPRLLKIWRNYLNMNKYKVSYKGPGPGVKFSVEALRCHLRDHVNVSMIEATDFPFNTTEWEGYLPKENFRTKVGPWQRCAVVSSAGSLKNSQLGREIDNHDAVLRFNGAPTDNFQQDVGSKTTIRLMNSQLVTTEKRFLKDSLYTEGILIVWDPSVYHADIPKWYQKPDYNFFETYKSYRRLNPSQPFYILKPQMPWELWDIIQEISADLIQPNPPSSGMLGIIIMMTLCDQVDIYEFLPSKRKTDVCYYHQKFFDSACTMGAYHPLLFEKNMVKHLNEGTDEDIYLFGKATLSGFRNIRC	–	–	–	–	–	–	–	–	–	Km [7, 9]: 217 µM; Vmax [7, 9]: 65.24 nmol/min/mg
